Laboratory results taken from patent US12528815B2, “5-amino-8-(4-pyridyl)-[1,2,4]triazolo[4,3-c]pyrimidin-3-one compounds for use against cancer” (Nxera Pharma UK Limited, priority 2020, dated 2026).

Assays:
[1] = molecular target: T1, human adenosine A1 receptor (Homo sapiens, UniProt P30542); assay: Inhibition binding assay, human adenosine A1 receptor membranes, [3H]DPCPX; details: 1 nM [3H]DPCPX, 25° C., 1 h; IC50 converted to Ki with Cheng-Prusoff; read-out: A1 pKi (converted)
T1 construct: expressed in transfected cells; host or cells: HEK293 cells infected with BacMam (the same paragraph also labels the preparation CHO-hA1)
T1 sequence (P30542 1-326): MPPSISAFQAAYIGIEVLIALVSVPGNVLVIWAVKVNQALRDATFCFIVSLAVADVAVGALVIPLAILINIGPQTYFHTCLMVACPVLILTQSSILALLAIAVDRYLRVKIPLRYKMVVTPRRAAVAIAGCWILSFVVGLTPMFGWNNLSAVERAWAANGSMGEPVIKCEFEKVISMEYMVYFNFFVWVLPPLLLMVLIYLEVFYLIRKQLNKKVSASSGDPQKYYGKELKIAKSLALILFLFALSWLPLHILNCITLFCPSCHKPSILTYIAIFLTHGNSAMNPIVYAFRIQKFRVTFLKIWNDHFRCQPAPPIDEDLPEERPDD
Protocol: (§1) Inhibition binding assays were performed using 0.2 μg of membranes prepared from HEK293 cells infected with BacMam human adenosine A2A receptor or 1.4 μg of membranes prepared from HEK293 cells infected with BacMam human adenosine A1 receptor. Membranes were incubated in 50 mM Tris-HCl (HEK293-hA2A; pH 7.4) or 50 mM Tris-HCl, 100 mM NaCl, 10 mM MgCl2 (CHO-hA1; pH 7.4) in the presence of varying concentrations of test compound and 1 nM [^3H]ZM241385 (HEK293-hA2A) or [^3H]DPCPX (CHO-hA1) at 25° C. for 1 h. The assay was then terminated by rapid filtration onto GF/B grade Unifilter plates using a TomTec cell harvester, followed by 5×0.5 ml washes with ddH2O. Nonspecific binding was defined in the presence of 1 μM CGS15943 (HEK293-hA2A) or 1 μM DPCPX (CHO-hA1). Bound radioactivity was determined by liquid scintillation counting and inhibition curves were analysed using a four-parameter logistic equation. IC50 values were converted to Ki values with the Cheng-Prusoff equation using a KD value derived from saturation binding studies.

[2] = molecular target: T2, human adenosine A2A receptor (Homo sapiens, UniProt P29274); assay: Inhibition binding assay, human adenosine A2A receptor membranes, [3H]ZM241385; details: 1 nM [3H]ZM241385, HEK293-hA2A membranes, 25° C., 1 h; IC50 converted to Ki with Cheng-Prusoff; read-out: A2A pKi (converted)
T2 construct: expressed in transfected cells; host or cells: HEK293 cells infected with BacMam
Protocol: as §1

T2 sequence (P29274 whole entry): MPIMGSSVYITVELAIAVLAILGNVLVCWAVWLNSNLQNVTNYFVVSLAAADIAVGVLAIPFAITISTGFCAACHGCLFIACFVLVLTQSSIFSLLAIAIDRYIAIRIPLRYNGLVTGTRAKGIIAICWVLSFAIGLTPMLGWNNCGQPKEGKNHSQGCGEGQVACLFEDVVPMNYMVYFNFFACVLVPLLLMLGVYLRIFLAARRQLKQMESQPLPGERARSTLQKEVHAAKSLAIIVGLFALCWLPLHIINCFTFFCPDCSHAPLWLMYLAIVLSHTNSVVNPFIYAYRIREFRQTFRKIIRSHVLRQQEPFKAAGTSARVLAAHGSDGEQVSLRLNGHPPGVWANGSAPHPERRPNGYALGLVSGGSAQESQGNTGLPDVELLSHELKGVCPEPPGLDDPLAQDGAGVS

| Ki [1] [µM] | Ki [2] [µM] | SMILES |
| --- | --- | --- |
| 0.1 | 0.000251 | Cc1cc(-c2c(-c3ccccc3)nc(N)n3c(=O)n(Cc4ccc(F)c(N)n4)nc23)cc(C)n1 [Example 1-36, 5-amino-2-[(6-amino-5-fluoro-2-pyridyl)methyl]-8-(2,6-dimethyl-4-pyridyl)-7-phenyl-[1,2,4]triazolo[4,3-c]pyrimidin-3-one] |
| 0.631 | 0.0158 | Cc1cc(-c2c(-c3ccccc3)nc(N)n3c(=O)n(C[C@@H]4CN(C)CCO4)nc23)cc(C)n1 [Example 2-72, 5-amino-8-(2,6-dimethyl-4-pyridyl)-2-[[(2S)-4-methylmorpholin-2-yl]methyl]-7-phenyl-[1,2,4]triazolo[4,3-c]pyrimidin-3-one] |
| 0.316 | 0.0126 | Cc1cc(-c2c(-c3ccccc3)nc(N)n3c(=O)n(C(C)c4ccccn4)nc23)cc(C)n1 (centres unmarked) [Example 1-20, 5-amino-8-(2,6-dimethyl-4-pyridyl)-7-phenyl-2-[1-(2-pyridyl)ethyl]-[1,2,4]triazolo[4,3-c]pyrimidin-3-one] |
| 0.002 | 0.000158 | Cc1cc(-c2c(-c3ccccc3)nc(N)n3c(=O)n(Cc4ccccc4OCC4CC4)nc23)cc(C)n1 [Example 1-22, 5-amino-2-[[2-(cyclopropylmethoxy)phenyl]methyl]-8-(2,6-dimethyl-4-pyridyl)-7-phenyl-[1,2,4]triazolo[4,3-c]pyrimidin-3-one] |
| 0.251 | 0.0126 | Cc1cc(-c2c(-c3ccccc3)nc(N)n3c(=O)n(CCc4ccc(O)cc4)nc23)cc(C)n1 [Example 1-82, 5-amino-8-(2,6-dimethyl-4-pyridyl)-2-[2-(4-hydroxyphenyl)ethyl]-7-phenyl-[1,2,4]triazolo[4,3-c]pyrimidin-3-one] |
| 1 | 0.1 | Cc1cc(-c2c(-c3ccccc3)nc(N)n3c(=O)n(CCO)nc23)cc(C)n1 [Example 2-7, 5-amino-8-(2,6-dimethyl-4-pyridyl)-2-(2-hydroxyethyl)-7-phenyl-[1,2,4]triazolo[4,3-c]pyrimidin-3-one] |
| 0.2 | 0.001 | Cc1cc(-c2c(-c3ccccc3)nc(N)n3c(=O)n(Cc4ncc(F)cc4Cl)nc23)cc(CO)n1 [Example 1-50, 5-amino-2-[(3-chloro-5-fluoro-2-pyridyl)methyl]-8-[2-(hydroxymethyl)-6-methyl-4-pyridyl]-7-phenyl-[1,2,4]triazolo[4,3-c]pyrimidin-3-one] |
| 0.501 | 0.00251 | Cc1cc(-c2c(-c3ccccc3)nc(N)n3c(=O)n(Cc4ccc(Br)cn4)nc23)cc(CO)n1 [Example 1-53, 5-amino-2-[(5-bromo-2-pyridyl)methyl]-8-[2-(hydroxymethyl)-6-methyl-4-pyridyl]-7-phenyl-[1,2,4]triazolo[4,3-c]pyrimidin-3-one] |
| 0.251 | 0.00158 | Cc1cc(-c2c(-c3ccccc3)nc(N)n3c(=O)n(CC4CCCCO4)nc23)cc(CO)n1 (single isomer, unassigned) [Example 2-91-iso-2, 5-amino-8-[2-(hydroxymethyl)-6-methyl-4-pyridyl]-7-phenyl-2-(tetrahydropyran-2-ylmethyl)-[1,2,4]triazolo[4,3-c]pyrimidin-3-one] |
| 0.631 | 0.00126 | Cc1cc(-c2c(-c3ccc(F)cc3)nc(N)n3c(=O)n(CCC(F)(F)F)nc23)cc(C)n1 [Example 2-33, 5-amino-8-(2,6-dimethyl-4-pyridyl)-7-(4-fluorophenyl)-2-(3,3,3-trifluoropropyl)-[1,2,4]triazolo[4,3-c]pyrimidin-3-one] |
| > 3.16 | 0.316 | Cc1cc(-c2c(N3CCOCC3)nc(N)n3c(=O)n(CCC(F)(F)F)nc23)cc(C)n1 [Example 3-1, 5-amino-8-(2,6-dimethyl-4-pyridyl)-7-morpholino-2-(3,3,3-trifluoropropyl)-[1,2,4]triazolo[4,3-c]pyrimidin-3-one] |
| 0.398 | 0.00398 | Cc1cc(-c2c(-c3ccccc3)nc(N)n3c(=O)n(CCN(C)C4CC4)nc23)cc(C)n1 [Example 2-19, 5-amino-2-[2-[cyclopropyl(methyl)amino]ethyl]-8-(2,6-dimethyl-4-pyridyl)-7-phenyl-[1,2,4]triazolo[4,3-c]pyrimidin-3-one] |
| > 3.98 | 0.0398 | Cc1cc(-c2c(-c3ccncc3)nc(N)n3c(=O)n(CCC(F)(F)F)nc23)cc(C)n1 [Example 2-38, 5-amino-8-(2,6-dimethyl-4-pyridyl)-7-(4-pyridyl)-2-(3,3,3-trifluoropropyl)-[1,2,4]triazolo[4,3-c]pyrimidin-3-one] |
| > 3.98 | 0.2 | Cc1cc(-c2c(-c3ccccc3)nc(N)n3c(=O)n(CCNC4CCCC(C(=O)NC5CC5)C4)nc23)cc(C)n1 (centres unmarked) [Example 2-108, 3-[2-[5-amino-8-(2,6-dimethyl-4-pyridyl)-3-oxo-7-phenyl-[1,2,4]triazolo[4,3-c]pyrimidin-2-yl]ethylamino]-N-cyclopropyl-cyclohexanecarboxamide] |
| > 3.16 | 0.251 | Cc1cc(-c2c(-c3ccccc3)nc(N)n3c(=O)n(C4CCCNC4)nc23)cc(C)n1 (centres unmarked) [Example 2-55, 5-amino-8-(2,6-dimethyl-4-pyridyl)-7-phenyl-2-(3-piperidyl)-[1,2,4]triazolo[4,3-c]pyrimidin-3-one] |
| > 1.58 | 0.00126 | COc1cc(-c2c(-c3ccc(F)cc3)nc(N)n3c(=O)n(Cc4ccc(Cl)cn4)nc23)cc(CO)n1 [Example 1-68, 5-amino-2-[(5-chloro-2-pyridyl)methyl]-7-(4-fluorophenyl)-8-[2-(hydroxymethyl)-6-methoxy-4-pyridyl]-[1,2,4]triazolo[4,3-c]pyrimidin-3-one] |
| > 1.58 | 0.00158 | Cc1ccc(Cn2nc3c(-c4cc(C)nc(CO)c4)c(-c4ccc(F)cc4)nc(N)n3c2=O)nc1 [Example 1-61, 5-amino-7-(4-fluorophenyl)-8-[2-(hydroxymethyl)-6-methyl-4-pyridyl]-2-[(5-methyl-2-pyridyl)methyl]-[1,2,4]triazolo[4,3-c]pyrimidin-3-one] |
| 1 | 0.1 | CCC(c1ccc(F)cn1)n1nc2c(-c3cc(C)nc(C)c3)c(-c3ccccc3)nc(N)n2c1=O (racemic) [Example 1-38, 5-amino-8-(2,6-dimethyl-4-pyridyl)-2-[1-(5-fluoro-2-pyridyl)propyl]-7-phenyl-[1,2,4]triazolo[4,3-c]pyrimidin-3-one] |
| 1 | 0.0126 | Cc1cc(-c2c(-c3ccccc3)nc(N)n3c(=O)n(CCC(=O)N(C)C)nc23)cc(C)n1 [Example 2-23, 3-[5-amino-8-(2,6-dimethyl-4-pyridyl)-3-oxo-7-phenyl-[1,2,4]triazolo[4,3-c]pyrimidin-2-yl]-N,N-dimethyl-propanamide] |
| > 3.98 | 0.0316 | CC#Cc1nc(N)n2c(=O)n(CCC(F)(F)F)nc2c1-c1cc(C)nc(C)c1 [Example 3-7, 5-amino-8-(2,6-dimethyl-4-pyridyl)-7-prop-1-ynyl-2-(3,3,3-trifluoropropyl)-[1,2,4]triazolo[4,3-c]pyrimidin-3-one] |
| 0.0398 | 0.000794 | Cc1cc(-c2c(-c3ccccc3)nc(N)n3c(=O)n(CCC(C)C)nc23)cc(C)n1 [Example 2-5, 5-amino-8-(2,6-dimethyl-4-pyridyl)-2-isopentyl-7-phenyl-[1,2,4]triazolo[4,3-c]pyrimidin-3-one] |
| 0.501 | 0.0126 | Cc1cc(-c2c(-c3ccccc3)nc(N)n3c(=O)n(C[C@H]4CN(C(=O)OC(C)(C)C)CCO4)nc23)cc(C)n1 [Example 2-65, tert-butyl (R)-2-((5-amino-8-(2,6-dimethylpyridin-4-yl)-3-oxo-7-phenyl-[1,2,4]triazolo[4,3-c]pyrimidin-2(3H)-yl)methyl)morpholine-4-carboxylate] |
| 0.501 | 0.0631 | CCC(c1ccc(F)cn1)n1nc2c(-c3cc(C)nc(C)c3)c(-c3ccccc3)nc(N)n2c1=O (single isomer, unassigned) [1-38 iso-1, 5-amino-8-(2,6-dimethyl-4-pyridyl)-2-[1-(5-fluoro-2-pyridyl)propyl]-7-phenyl-[1,2,4]triazolo[4,3-c]pyrimidin-3-one] |
|  | 0.0158 | Cc1cc(-c2c(-c3ccccc3)nc(N)n3c(=O)n(CCN4CCCCC4)nc23)cc(C)n1 [Example 2-96, 5-amino-8-(2,6-dimethyl-4-pyridyl)-7-phenyl-2-[2-(1-piperidyl)ethyl]-[1,2,4]triazolo[4,3-c]pyrimidin-3-one] |
